Where “and” joins values, the source holds several entries; their conditions need not be identical. Equal values may be shown once. Entries after “also recorded” stand apart in the source; their conditions may differ. Read-outs that look alike come from different tables or passages of the source.
Assays:
UGTs = conditions: in vitro, human liver microsomes; cited from earlier work
[1] = parameters: method as in PMID 28070719; reduction of exposure to sunitinib by paracetamol / reduction of exposure to sunitinib in liver by paracetamol / reduction of exposure to sunitinib in kidneys by paracetamol / reduction of exposure to sunitinib in brain by paracetamol: concentration or dose not given beside the values; conditions: cited from earlier work
[2] = male mice which received paracetamol; cited from earlier work
[3] = Plasma pharmacokinetics of paracetamol, paracetamol glucuronide and paracetamol sulphate in rats (HPLC-UV, non-compartmental); format: in vivo, Wistar rats; conditions: for AUC0-t / AUC0-∞ / Cmax / AUC(0-inf) / Vd/F / k el / MRT last / AUMC0-t / t0.5: plasma; for MRT last: read-out: MRT0-t
Protocol: (§1) The experimental protocol for this study was reviewed and approved by the Local Ethics Committee. All procedures were performed in accordance with the European Union regulations concerning the handling and use of laboratory animals. The study was based on the required minimum number of animals and observation time in order to obtain consistent data. […] The animals were allowed to acclimatise for a week before the beginning of the experiments. The rats were divided into three groups. […] In order to make sure that the animals received the entire dose of the drug, 1 mL of DMSO was then administered to rinse the probe. 80 μL of blood was collected from each rat by cutting off a piece of his tail. […] The blood samples were transferred into heparinised tubes and they were centrifuged at 2880 g for 10 min at 4 °C.
The total time of analysis for each run was 10 min. The column temperature was maintained at 25 °C, the UV detection wavelength was set at 261 nm, and the injection volume was 50 μL. The validation was performed according to the guidelines of the European Medicines Agency (EMA) concerning validation of bioanalytical methods. […] 20 μL of the internal standard solution and 200 μL of 6% perchloric acid were added to 100 μL of the rat plasma. The samples were shaken for 30 s and then they were centrifuged for 10 min at 5000 g. About 100 μL of the resulting supernatants was transferred into glass inserts and a volume of 50 μL was injected onto HPLC column.
(§2) The pharmacokinetic parameters were estimated with the non-compartmental method, using Phoenix® WinNonlin® 7.0 software (Certara L.P.). kel – elimination rate constant; AUC0-t – area under the plasma concentration-time curve from zero to the time of the last measurable concentration; AUC0-∞ – area under the plasma concentration-time curve from zero to infinity; t0.5 – elimination half-life; Cl/F – clearance; Vd/F – volume of distribution; Cmax – maximum plasma concentration; tmax – time necessary to reach the maximum concentration; MRT0-t – mean residence time; AUMC0-t – area under the first moment curve.

[4] = Plasma pharmacokinetics of lapatinib in rats (HPLC-MS/MS, non-compartmental); format: in vivo, Wistar rats; conditions: for AUC0-t / AUC(0-inf) / Cmax / Vd/F / k el / MRT last / tmax / AUMC0-t / Cl/F: plasma; for MRT last: read-out: MRT0-t
Protocol: as §1
Chromatographic separation was performed on a Kinetex C18 column (50 × 4.6 mm, 2.6 μm, Phenomenex, Torrance, CA, USA). The column temperature and injection volume were set at 35 °C and 10 μL, respectively. The mobile phase comprised 0.1% formic acid in water with 5 mM ammonium formate (eluent A) and acetonitrile with 10% phase A (eluent B).
An aliquot of the rat plasma (20 μL) was mixed with 50 μL of IS solution (100 ng/mL) and 930 μL of methanol and then vortexed for 30 s. As a result, a total dilution factor of 50 was obtained. After centrifugation at 10,000 g (10 min), the supernatant was transferred into amber glass HPLC vials. The validation was performed according to the guidelines of EMA concerning validation of bioanalytical methods.
as §2

[5] = cited from earlier work
UGT1A1 = system: UGT1A1; parameters: method as in PMID 26642944; conditions: cited from earlier work
UGT1A7 = system: UGT1A7; parameters: method as in PMID 26642944; conditions: cited from earlier work
UGT1A4 = system: UGT1A4; parameters: method as in PMID 26642944; conditions: cited from earlier work
[6] = liver metabolism; cited from earlier work
[7] = lapatinib administered together with leucovorin, irinotecan and 5-fluorouracil; cited from earlier work
[8] = IL + PA vs IIIPA group, listed as paracetamol glucoronide
[9] = paracetamol 100 mg/kg p.o. + lapatinib 100 mg/kg p.o. (IL + PA), M ± SD
[10] = paracetamol 100 mg/kg p.o. alone (IIIPA), M ± SD
[11] = paracetamol + lapatinib 100 mg/kg p.o. each (IL + PA), M ± SD
[12] = male, Wistar, rat, po, 100 mg/kg, rats, lapatinib 100 mg/kg p.o. + paracetamol 100 mg/kg p.o. (IL + PA), M ± SD
[13] = male, Wistar, rat, po, 100 mg/kg, rats, lapatinib 100 mg/kg p.o. alone (IIL), M ± SD
[14] = rats, lapatinib 100 mg/kg p.o. + paracetamol 100 mg/kg p.o. (IL + PA), M ± SD
[15] = rats, lapatinib 100 mg/kg p.o. alone (IIL), M ± SD
[16] = patients treated with lapatinib
[17] = male, Wistar, rat, po, 100 mg/kg, paracetamol 100 mg/kg p.o. + lapatinib 100 mg/kg p.o. (IL + PA), M ± SD
[18] = male, Wistar, rat, po, 100 mg/kg, paracetamol 100 mg/kg p.o. alone (IIIPA), M ± SD

COc1cc2c(Nc3ccc(Br)cc3F)ncnc2cc1OCC1CCN(C)CC1 [vandetanib]
inhibition of paracetamol glucuronidation (UGTs): slight inhibitory effect

Cc1nc(Nc2ncc(C(=O)Nc3c(C)cccc3Cl)s2)cc(N2CCN(CCO)CC2)n1 [dasatinib]
inhibition of paracetamol glucuronidation (UGTs): inhibited paracetamol glucuronidation

Cc1ccc(NC(=O)c2ccc(CN3CCN(C)CC3)cc2)cc1Nc1nccc(-c2cccnc2)n1 [imatinib]
inhibition of paracetamol glucuronidation (UGTs): inhibited paracetamol glucuronidation

CCN(CC)CCNC(=O)c1c(C)[nH]c(/C=C2\C(=O)Nc3ccc(F)cc32)c1C [sunitinib]
effect of paracetamol on sunitinib concentration ([1]; female mice): did not affect the concentration
reduction of exposure to sunitinib in brain by paracetamol ([1]; female mice): 50%
reduction of exposure to sunitinib in kidneys by paracetamol ([1]; female mice): 20%
reduction of exposure to sunitinib in liver by paracetamol ([1]; female mice): 9%
reduction of exposure to sunitinib by paracetamol ([1]; male mice): 29%
reduction of exposure to sunitinib in brain by paracetamol ([1]; male mice): 47%
reduction of exposure to sunitinib in kidneys by paracetamol ([1]; male mice): 15%
reduction of exposure to sunitinib in liver by paracetamol ([1]; male mice): 15%
kidney sunitinib concentration vs control group [2]: 1.4 times
liver sunitinib concentration vs control group [2]: 2.2 times

CC(=O)Nc1ccc(O[C@@H]2O[C@H](C(=O)O)[C@@H](O)[C@H](O)[C@H]2O)cc1 [paracetamol glucuronide]
decrease in AUC0-t ([3]; IL + PA vs IIIPA group): 26%
decrease in AUC0-∞ ([3]; IL + PA vs IIIPA group): 29%
decrease in Cmax ([3]; IL + PA vs IIIPA group): 24%
decrease in AUC0-t [3, 8]: ~25.5%
decrease in AUC0-∞ [3, 8]: ~28.6%
decrease in Cmax [3, 8]: about 24.4%
AUC0-t [3, 9]: 101.50 ± 22.02 (21.7) μg × h/mL
AUC0-∞ [3, 9]: 109.94 ± 22.89 (20.8) μg × h/mL
Cmax [3, 9]: 29.01 ± 7.62 (26.3) μg/mL
paracetamol glucuronide/paracetamol ratio, AUC0-t [3, 10]: 1.75 ± 0.47 (27.1)
paracetamol glucuronide/paracetamol ratio, Cmax [3, 10]: 1.67 ± 0.41 (24.7)
AUC0-t [3, 10]: 136.24 ± 23.58 (17.31) μg × h/mL
AUC0-∞ [3, 10]: 154.08 ± 35.58 (23.09) μg × h/mL
Cmax [3, 10]: 38.38 ± 3.75 (9.76) μg/mL
paracetamol glucuronide/paracetamol ratio, AUC0-t [3, 11]: 3.68 ± 1.67 (45.4)
paracetamol glucuronide/paracetamol ratio, AUC0-∞ [3, 11]: 3.36 ± 2.37 (70.6)
paracetamol glucuronide/paracetamol ratio, Cmax [3, 11]: 3.58 ± 1.85 (51.5)

CC(=O)Nc1ccc(OS(=O)(=O)O)cc1 [paracetamol sulphate]
increase in AUC0-t ([3]; IL + PA vs IIIPA group): ~61% and 61.4%
AUC0-t [3, 9]: 116.04 ± 27.02 (23.3) μg × h/mL
AUC0-∞ [3, 9]: 130.23 ± 31.32 (24.1) μg × h/mL
Cmax [3, 9]: 35.15 ± 6.61 (18.8) μg/mL
paracetamol sulphate/paracetamol ratio, AUC0-t [3, 10]: 0.91 ± 0.43 (47.3)
paracetamol sulphate/paracetamol ratio, AUC0-∞ [3, 10]: 1.05 ± 0.45 (43.1)
paracetamol sulphate/paracetamol ratio, Cmax [3, 10]: 0.88 ± 0.46 (52.7)
AUC0-t [3, 10]: 71.92 ± 31.04 (43.2) μg × h/mL
AUC0-∞ [3, 10]: 82.42 ± 32.71 (39.7) μg × h/mL
Cmax [3, 10]: 19.41 ± 7.05 (36.4) μg/mL
paracetamol sulphate/paracetamol ratio, AUC0-t [3, 11]: 4.27 ± 2.29 (53.5)
paracetamol sulphate/paracetamol ratio, AUC0-∞ [3, 11]: 4.86 ± 2.74 (56.5)
paracetamol sulphate/paracetamol ratio, Cmax [3, 11]: 4.73 ± 3.02 (64.0)

CNC(=O)c1cc(Oc2ccc(NC(=O)Nc3ccc(Cl)c(C(F)(F)F)c3)cc2)ccn1 [sorafenib]
inhibition of paracetamol glucuronidation (UGTs): inhibited paracetamol glucuronidation

CS(=O)(=O)CCNCc1ccc(-c2ccc3ncnc(Nc4ccc(OCc5cccc(F)c5)c(Cl)c4)c3c2)o1 [lapatinib, Lapatinib]
AUC0-t [4, 12]: 20700 ± 8270 ng·h/mL
AUC(0-inf) [4, 12]: 39500 ± 24000 ng·h/mL
Cmax [4, 12]: 2240 ± 585 ng/mL
Vd/F [4, 12]: 17.5 ± 2.55 L
k el [4, 12]: 1.94e-05 s⁻¹
MRT last [4, 12]: 7.28 ± 3.15 h
AUC0-t [4, 13]: 6080 ± 3930 ng·h/mL
AUC(0-inf) [4, 13]: 8040 ± 4750 ng·h/mL
Cmax [4, 13]: 787 ± 213 ng/mL
Vd/F [4, 13]: 57.2 ± 23.3 L
k el [4, 13]: 2.5e-05 s⁻¹
MRT last [4, 13]: 5.77 ± 1.95 h
tmax ([4]; male, Wistar, rat, po, 100 mg/kg, read-out: tmax): 2.42 ± 1.11 h
increase in Cmax ([4]; rats, co-administration with paracetamol (IL + PA) vs lapatinib alone (IIL)): 184%
AUMC0-t [4, 14]: 620.79 ± 1170.66 (188.6) mg × h^2/L
Cl/F [4, 14]: 2.81 ± 1.20 (42.8) L/h
tmax [4, 14]: 2.50 ± 0.84 (33.5) h
AUMC0-t [4, 15]: 40.79 ± 37.98 (93.1) mg × h^2/L
Cl/F [4, 15]: 11.46 ± 6.76 (59.0) L/h
patients with isolated ALT increase more than 3 times ULN ([5]; patients subjected to lapatinib therapy): 3–5%
patients in whom ULN was exceeded 5–20 times [5, 16]: 1.6%
patients with hyperbilirubinemia and severe liver damage [5, 16]: 0.2%
inhibition of paracetamol glucuronidation (UGTs): slight inhibitory effect; also recorded: weak inhibitor
UGT1A1 inhibition (UGT1A1): strong competitive inhibitor
UGT1A7 inhibition type (UGT1A7): non-competitive
UGT1A4 inhibition type (UGT1A4): mixed

Cc1cn(-c2cc(NC(=O)c3ccc(C)c(Nc4nccc(-c5cccnc5)n4)c3)cc(C(F)(F)F)c2)cn1 [nilotinib]
inhibition of paracetamol glucuronidation (UGTs): slight inhibitory effect

CC(=O)Nc1ccc(O)cc1 [paracetamol, Paracetamol]
decrease in AUC0-t ([3]; IL + PA vs IIIPA group): ~56.8%
decrease in AUC0-∞ ([3]; IL + PA vs IIIPA group): 48.8%
increase in MRT0-t ([3]; IL + PA vs IIIPA group): 12.1%
increase in Vd/F ([3]; IL + PA vs IIIPA group): 351.5%
AUC(0-inf) [3, 17]: 45400 ± 21200 ng·h/mL
Vd/F [3, 17]: 8.94 ± 8.04 L
k el [3, 17]: 6.67e-05 s⁻¹
AUC0-t ([3]; male, Wistar, rat, po, 100 mg/kg, paracetamol 100 mg/kg p.o. + lapatinib 100 mg/kg p.o. (IL + PA), M ± SD, read-out: AUC0-t): 34800 ± 20100 ng·h/mL
Cmax ([3]; male, Wistar, rat, po, 100 mg/kg, paracetamol 100 mg/kg p.o. + lapatinib 100 mg/kg p.o. (IL + PA), M ± SD, read-out: Cmax): 10900 ± 6880 ng/mL
MRT last [3, 17]: 2.88 ± 0.27 h
AUC(0-inf) [3, 18]: 88600 ± 8960 ng·h/mL
Vd/F [3, 18]: 1.98 ± 0.63 L
k el [3, 18]: 9.17e-05 s⁻¹
AUC0-t ([3]; male, Wistar, rat, po, 100 mg/kg, paracetamol 100 mg/kg p.o. alone (IIIPA), M ± SD, read-out: AUC0-t): 80500 ± 12100 ng·h/mL
Cmax ([3]; male, Wistar, rat, po, 100 mg/kg, paracetamol 100 mg/kg p.o. alone (IIIPA), M ± SD, read-out: Cmax): 24700 ± 8430 ng/mL
MRT last [3, 18]: 2.57 ± 0.3 h
AUMC0-t [3, 9]: 97.11 ± 52.00 (53.6) μg × h^2/mL
t0.5 [3, 9]: 5.30 ± 6.92 (130.7) h
AUMC0-t [3, 10]: 203.85 ± 18.15 (8.9) μg × h^2/mL
t0.5 [3, 10]: 2.26 ± 0.70 (31.0) h
fraction oxidised to toxic metabolite NAPQI [6]: less than 10%
fraction transformed by glucuronidation [6]: 40–60%
fraction transformed by sulphation [6]: 20–46%

CCc1c2c(nc3ccc(O)cc13)-c1cc3c(c(=O)n1C2)COC(=O)[C@]3(O)CC [SN-38]
increase in AUC of SN-38 [7]: about 40%

C#Cc1cccc(Nc2ncnc3cc(OCCOC)c(OCCOC)cc23)c1 [erlotinib, Erlotinib]
inhibition of paracetamol glucuronidation (UGTs): slight inhibitory effect
